Measurements as given in PMC10447463, “Data-mining unveils structure–property–activity correlation of viral infectivity enhancing self-assembling peptides” (Nature Communications, 2023).
Where “and” joins values, the source holds several entries; their conditions need not be identical. Identical values can stand only once.

Columns and labels:
[1] = system: HIV-1 infection of TZM-bl cells; assay: HIV-1 infectivity enhancement assay, β-galactosidase luminescence; format: cell-based; details: for Rel-EFC: infection relative to EF-C (QCKIKQIINMWQ = 1); for Log10 Infection Rel EFC: log10 of infection relative to EF-C; for Log Infectivity: Log10 infection relative to EF-C, asymmetric std dev errors; for Log10 Infection Rel EF-C: HIV-1 infection of TZM-bl cells; for Log10 of Rel to EFC (Feb2021): Log10 of infection relative to EF-C; for Abs. Inf. / RLU s-1: absolute infection rate, peptide 1.3 µM on cells, virus preincubated 10 min with fibrils, read 3 days post infection; for Abs. Inf. / RLU s-1 / Abs. Infection at 0.26 µM: mean of triplicate; for Abs. Infection at 0.26 µM: peptide 0.26 µM; for Abs. Inf.: β-galactosidase luminescence; for Log10 Inf. rel. to EF-C: log10 of HIV-1 infection of TZM-bl cells relative to EF-C (EF-C = 0)
[2] = Conversion rate (CR) assay with fluorescamine; format: physicochemical; parameters: key to CR: % = 100−100×filtrate/original fluorescence intensity
Experimental: For ATR FT–IR spectroscopy measurements, 200 µL of the respective 1 mg/mL PNF solution was lyophilized and the resulting powder used for measurement. All spectra were recorded on a Bruker Tensor 27 spectrometer with a diamond crystal as ATR element (PIKE MiracleTM, spectral resolution 2 cm^-1). Every sample was measured with 64 scans. Data were analyzed with OriginLab software and calculation of β–sheet content was conducted according to a previous report. TEM. For TEM measurements 5 µL of PNF fibrils (1 mg/mL) were placed on copper grids coated with carbon and formvar layer (300 mesh, Plano GmbH). After 10 min incubation time, the grids were staining with 4% uranyl acetate solution for 2.5 min and washed with water. Measurements were performed on a Jeol 1400 electron microscope with 120 kV acceleration voltage. CR Assay. For the determination of the amount of peptide monomer converting into nanostructures the amine reactive dye fluorescamine was used analogous to a previous reported protocol. Briefly, 100 µL of the preformed PNF solution was centrifuged in a Vivaspin 500 tube (3 kDa MWCO) to separate fibers from free peptide monomer (16200 x g, 4 °C, 45 min). The filtrate and 100 μL of the non-filtered PNF sample were lyophilized and dissolved in 30 μL DMSO. 10 μL of the filtrate and non-filtered DMSO samples were submitted in a black UV Star® 384 microliter well–plates (Greiner bio–one) and 3 μL of the fluorescamine solution (10 mg/mL, DMSO) was added to measure the fluorescence enhancement. After 20 min of incubation at RT, fluorescence was recorded on an Infinite® M1000 PRO microplate reader (Tecan) at λem = 470 nm upon excitation at λex = 365 nm with 10 nm bandwidths and multiple reads per well (3×3). Measurements were repeated in triplicates and averaged with standard deviation. All values were calculated as n-fold fluorescence enhancement (DMSO only as a reference was set to 1). The conversion rate CR was defined according to the equation Eq. (3).3 CR=100−100×fluorescenceintensityfiltrate/fluorescenceintensityoriginal[%]

[3] = Aggregate analysis by widefield fluorescence microscopy; format: physicochemical; details: ThT-stained aggregates > 10 µm2 in 1330 µm × 1330 µm; 1 mg/mL 1 d, diluted to 0.1 mg/mL with 50 µM ThT; 3D object counter ImageJ, triplicate
Experimental: 4 µL of 1 mg/mL peptide fibrils solution is added to a 20 µL, 50 µM ThT–solution in PBS. The mixture is incubated for 15 min at RT to allow binding of ThT dye with β–sheet rich structures. For reference PBS (4 µL) was added instead of peptide fibril solution. The samples were placed in black UV Star® 384 microliter well–plates (Greiner bio–one). Fluorescence spectra were recorded on an Infinite® M1000 PRO microplate reader (Tecan) at λem = 488 nm upon excitation at λex = 440 nm with 10 nm bandwidths and multiple reads per well (3×3). Measurements were repeated in triplicates and averaged with standard deviation. A peptide fibril was considered as ThT-active if the fluorescence intensity was at least twice as strong compared to the control (PBS containing 10% DMSO). Zeta-Potential. For the determination of the surface charge of aggregated peptides zeta-potential measurements were conducted with a Zetasizer Nano ZS, Malvern Instruments. Unless stated otherwise the peptides were dissolved from DMSO (10 mg/mL) in PBS (pH 7.4) to concentration of 1 mg/mL and incubated for 1d at RT. Just before the measurement the 60 µL of the peptides were further diluted in 600 µL KCl (aq, 1 mM) in a 1 mL disposable folded capillary cells (DTS–1060, Zetasizer Nano series, Malvern). The zeta potential of the peptides was derived from the electrophoretic mobility based on the Smoluchowski formula. All measurements were averaged over two individually performed experiments and conducted in triplicates for each sample. Aggregate analysis. […] Furthermore, fluorescence microscopy was conducted by staining 1 µL preformed fibrils (1 mg/mL) with 9 µL ThT (50 µM). Brightfield microscopy was performed simultaneously to evaluate aggregation also for non ThT-active fibrils. The measurements were performed on a Leica DMi8 microscope with 10x air objective and equipped with a Leica MC170 HD camera with a filter setting λem = 527/30 nm upon excitation at λex = 480/40 nm) and processed with the Leica LASX software. To quantify size and number of microscopic aggregation of particles > 10 µm^2 at least 3 independently measured images were analyzed via the 3D object counter analysis tool of ImageJ, v 1.53f51. Sum–frequency generation. The SFG experiments were carried out with a femtosecond Ti: Sapphire amplified laser system (Spitfire Ace, Spectra–Physics, 800 nm, 40 fs, 1 kHz) with 5 W output power. We used 2 W to pump an optical parametric amplifier (TOPAS, light conversion) with a non–collinear difference frequency generation stage to generate broadband IR pulses. Another 1 W of the laser output passed through an etalon to generate narrowband visible pulses (10 cm^-1). The incident angles of the visible and IR beams were 36° and 41° with respect to the surface normal, respectively. The visible (13 µJ) and IR (5 µJ) pulses were overlapped spatially and temporally at the sample position. Subsequently, the generated SFG pulse was guided into a spectrograph (Acton SP 300i, Princeton Instruments), and detected with an EMCCD (Newton, Andor Technology). To avoid IR absorption of water vapor, we purged N2 for the measurement. All spectra were collected in the ssp (denoting s-, s- and p-polarized SFG, visible and IR, respectively) polarization combination. The spectra were normalized to the non–resonant signal taken from z–cut quartz after subtracting a background spectrum.
Table S8 Summary of aggregate analysis from widefield microscopy measurements (Figure S32). The Number of aggregated peptides, the median size area, average size area
and the cumulative total size area of all particles (> 10 µm2) in an area of 1330 µm × 1330 µm was determined via automated 3D object counting (ImageJ) in triplicate
measurements (Std. Dev.).
Aggregate Std. Dev. Std. Dev. Std. Dev. Std. Dev.
Sequence Abs. Inf. / Std. Dev. / Count Rate / Std. Dev. Number Aggregate Median Area Median Area Average Area Average Area Total Area/ Total Area/ […]

[4] = Turbidity, derived count rate of scattered light; format: physicochemical; details: for Count Rate: derived count rate of scattered light (turbidity); for Log10 Count Rate: turbidity, derived count rate of scattered light, data of Figure 2D
[5] = Fig. S7 panel A (plotted against β-sheet content), TZM-bl cells
[6] = Fig. S7 panel B (plotted against CR), rounded to two decimals, TZM-bl cells
[7] = Log10 of infection rate relative to EF-C, Figure 3A source data
[8] = infection rate relative to EF-C, log10, data of Figure 2D
[9] = infection rate relative to EF-C, log10, source data of Figure 2C
[10] = Fig. S7 panel B, conversion rate, fluorescamine assay
[11] = conversion rate, fluorescamine assay
[12] = absolute infection signal, HIV-1 on TZM-bl cells

Substance | Rel-EFC ([1]; 1.3 µM peptide) | Log10 Infection Rel EFC ([1]; 1.3 µM peptide) | Log Infectivity [1, 5] | Log Infectivity [1, 6] | Log10 Infection Rel EF-C [1, 7] | Log10 Infection Rel EF-C [1, 8] | Log10 Infection Rel EF-C [1, 9] | Log10 of Rel to EFC (Feb2021) ([1]; all peptides of FigS16) | Abs. Inf. / RLU s-1 [1] | CR / % [2, 10] | CR [2, 11] | Number of Aggregates / Aggregate Number [3] | Count Rate [4] | Log10 Count Rate [4] | other results
CKIKIQI | 1,02 | 0,01 | 0.0081 | 0.01 | 0.01 | 0.0081 | 0.0081 | 0.01 | 19406.66667 RLU s-1 | 54% | 54 | 317 ± 36 and 317 | 2432.9 | 3.386 | Abs. Infection at 0.26 µM [1]: 4967; Infection RLU/s, 1.3 µm abs ([1]; peptide 1.3 µm (so in the source), mean of the 3 replicates): 19406.66667 RLU/s
RGDSGGGGGGKIKIQIC | 0,87 | -0,06 | -0.0628 | -0.06 | -0.06 | -0.0628 | -0.0628 | -0.06 |  | 54.7% | 54.68 | 72 | 10416.16667 | 4.018 | 
CKAKAQANMWQ | 0,04 | -1,36 | -1.359 | -1.36 | -1.36 | -1.359 | -1.359 |  | 600 RLU s-1 | 92.5% | 92.45 | 6 | 8.967 | 0.9526 | Inf. rel. EF-C ([1]; HIV-1 infection relative to EF-C, Fig 23 plot, panels A and B, mean of 3 values): 0.02574; Inf. rel. EF-C ([1]; HIV-1 infection relative to EF-C, Fig 23 plot, single data point, replicate 1): 0.02321; Inf. rel. EF-C ([1]; HIV-1 infection relative to EF-C, Fig 23 plot, single data point, replicate 2): 0.03098; Inf. rel. EF-C ([1]; HIV-1 infection relative to EF-C, Fig 23 plot, single data point, replicate 3): 0.02305; Abs. Inf. [1, 12]: 600; Log10 Inf. rel. to EF-C [1]: -1.359; Inf. rel. EF-C ([1]; n-fold infection vs virus only, relative to that of EF-C, 1.3 µM peptide): 0.04; CR / % ([2]; conversion of monomer to nanostructures, 3 kDa MWCO filtration, fluorescamine, ex 365 / em 470 nm, triplicate): 92%
HHHHKIKIKIKIWWWW | 0,38 | -0,42 | -0.4216 | -0.42 | -0.42 | -0.4216 | -0.4216 | -0.42 |  | 96% | 96 | 446 | 23756.66667 | 4.376 | Log10 of Rel to EFC (Feb2021) ([1]; second listing, peptides with TEM 2cat 0): -0.42
CKIKQII | 0,04 | -1,38 | -1.379 | -1.38 | -1.38 | -1.379 | -1.379 |  | 796.7 RLU s-1 | 55% | 55 | 76 ± 12 and 76 | 74.6 | 1.873 | Abs. Infection at 0.26 µM [1]: 430
CKFKFQFW | 0,88 | -0,06 | -0.05512 | -0.06 | -0.06 | -0.05512 | -0.05512 | -0.06 |  | 98.7% | 98.71 | 517 | 29210.5 | 4.466 | Abs. Inf. ([1]; absolute HIV-1 infection signal, TZM-bl cells): 17862.22222
KFKFQFNM | 0,47 | -0,33 | -0.3265 | -0.33 | -0.33 | -0.3265 | -0.3265 | -0.33 |  | 94.8% | 94.77 |  | 131.8 | 2.12 | Abs. Inf. [1, 12]: 7067; Log10 Inf. rel. to EF-C [1]: -0.3265
RGDKIKIQINMC | 1,07 | 0,03 |  | 0.03 | 0.03 | 0.02911 | 0.02911 | 0.03 |  | 60% | 60 |  | 1404 | 3.147 | 
